Assay results taken from patent US4910012A, “Products containing Tc-99-m-ωalkylphosphinico-1-hydroxyalkane-1,1-diphosphonates for bone scintigraphy and a process for the preparation of these products” (Hoechst Aktiengesellschaft, priority 1988, dated 1990).

Experiments:
osteosarcoma = experiment: Scintigraphy in osteosarcoma model, ratio (Q) of count density in the tumor to that in the contralateral tibia; assay type: in vivo, Sprague-Dawley rats; settings: 0.01 mg i.v., 9.25 MBq Tc-99m, 4 weeks after tumor implantation
Method: Tc-99m-HMPD was tested on the model of osteosarcoma in Sprague-Dawley rats. […] The investigation was carried out 4 weeks after tumor implantation on a total of 30 animals. 1. Investigation schedule:
Day 1 Tc-99m-MDP (reference substance)
Scintigraphy 1, 90 and 180 minutes after injection
Storage of the scintigraphic data for the evaluation 2. Evaluation
Measurement of whole-body activity from the scintigraphic data
Ratio (Q) of the count density per unit area in the tumor to that in the contralateral tibia
Comparison of the quotient QHMPD with that for the products QMDP and QDBA-MDP.

[1] = in words, cited from earlier work
lesion / normal bone = experiment: Ratio Q of Tc-99m uptake in a lesion to uptake in normal bone (own investigations); assay type: in vivo; settings: compared with A-EDP, DMA-MDP, EA-MDP, DEA-MDP; Q=(% Tc/g of lesion)/(% Tc/g of normal bone)
Source text: Many investigations carried out to date have been devoted to the search for compounds having a more favorable uptake ratio between the lesion and normal skeleton.

bone lesions = settings: compared with DPD and MDP; cited from earlier work
[2] = Organ distribution of Tc-99m-HMPD in the rat 2 h after injection as a function of the amount administered (Table 3); assay type: in vivo; settings: for Bladder + urine / Blood / Bone / Kidneys / Liver / Lung / Muscle / Stomach / Thyroid: i.v., 2 h
Method: The product prepared as in Example 2 (pH=7) was used for the following experiment.
Organ distribution of Tc-99m-HMPD in the rat
(n = 3) 2 h after injection as a function of
the amount administered (mg) and as a % of the
injected dose per organ or tissue. The various
HMPD amounts were administered i.v. in 0.1 ml

[3] = Stability of Tc-99m-HMPD by gel chromatography on polyacrylamide gel (Bio Gel P-10), up to 24 h after preparation; assay type: physicochemical; settings: for % Activity in the HMPD: eluent 0.9% NaCl
Method: The labeling yield of Tc-99m-HMPD was determined, and the purity and stability were tested, by thin-layer chromatographic methods, gel filtration and HPLC.
2. The stability for a period of up to 24 h after preparation was tested by gel chromatography on polyacrylamide gel (Bio Gel® P-10, manufactured by Bio-Rad, California, USA) using 0.9% NaC1 solution as eluent (FIG. 1). The proportion of the activity in the HMPD, that in the form of pertechnetate and that remaining on the column were measured (Table 1). The latter is greater than the proportion of ^99m -Tc^4+ because non-specific adsorption of technetium to the support material is always observed.

O=P(O)(O)CP(=O)(O)O [MDP, methanediphosphonic acid]
Lesion quotient (Q) (osteosarcoma): 1.0

CCCCN(CCCC)C(P(=O)(O)O)P(=O)(O)O [DBA-MDP, N,N-dibutylaminomethanediphosphonic acid]
Lesion quotient (Q) (osteosarcoma): 1.16 | blood clearance ([1]; current state of knowledge): not optimal | bone/background ratio [1]: relatively poor | ratio Q for uptake of Tc-99m in a lesion vs normal bone (lesion / normal bone): by far the highest ratios Q | accumulation in the lesions (bone lesions): distinctly higher

1-hydroxy-3-methylphosphinico-1,1-propanediphosphonic acid [Tc-99m-HMPD]
Lesion quotient (Q) (osteosarcoma): 1.27 | Bladder + urine ([2]; 0.001 mg): 54.1 % of the injected dose per org | Blood ([2]; 0.001 mg): 0.7 % of the injected dose per org | Bone ([2]; 0.001 mg): 32.9 % of the injected dose per org | Kidneys ([2]; 0.001 mg): 1.51 % of the injected dose per org | Liver ([2]; 0.001 mg): 0.27 % of the injected dose per org | Lung ([2]; 0.001 mg): 0.080 % of the injected dose per org | Muscle ([2]; 0.001 mg): 0.8 % of the injected dose per org | Stomach ([2]; 0.001 mg): 0.151 % of the injected dose per org | Thyroid ([2]; 0.001 mg): 0.008 % of the injected dose per org | Bladder + urine ([2]; 0.01 mg): 55.6 % of the injected dose per org | Blood ([2]; 0.01 mg): 0.4 % of the injected dose per org | Bone ([2]; 0.01 mg): 34.7 % of the injected dose per org | Kidneys ([2]; 0.01 mg): 1.05 % of the injected dose per org | Liver ([2]; 0.01 mg): 0.18 % of the injected dose per org | Lung ([2]; 0.01 mg): 0.048 % of the injected dose per org | Muscle ([2]; 0.01 mg): 0.6 % of the injected dose per org | Stomach ([2]; 0.01 mg): 0.091 % of the injected dose per org | Thyroid ([2]; 0.01 mg): 0.008 % of the injected dose per org | Bladder + urine ([2]; 0.1 mg): 56.9 % of the injected dose per org | Blood ([2]; 0.1 mg): 0.4 % of the injected dose per org | Bone ([2]; 0.1 mg): 32.6 % of the injected dose per org | Kidneys ([2]; 0.1 mg): 0.94 % of the injected dose per org | Liver ([2]; 0.1 mg): 0.17 % of the injected dose per org | Lung ([2]; 0.1 mg): 0.480 % of the injected dose per org | Muscle ([2]; 0.1 mg): 0.6 % of the injected dose per org | Stomach ([2]; 0.1 mg): 0.092 % of the injected dose per org | Thyroid ([2]; 0.1 mg): 0.011 % of the injected dose per org | Bladder + urine ([2]; 1 mg): 59.1 % of the injected dose per org | Blood ([2]; 1 mg): 0.8 % of the injected dose per org | Bone ([2]; 1 mg): 28.7 % of the injected dose per org | Kidneys ([2]; 1 mg): 1.03 % of the injected dose per org | Liver ([2]; 1 mg): 0.22 % of the injected dose per org | Lung ([2]; 1 mg): 0.079 % of the injected dose per org | Muscle ([2]; 1 mg): 1.1 % of the injected dose per org | Stomach ([2]; 1 mg): 0.090 % of the injected dose per org | Thyroid ([2]; 1 mg): 0.007 % of the injected dose per org | liver uptake with larger administered amounts ([2]; in words): no increase in liver uptake at the expense of skeletal accumulation | % Tc-99m Residue on the column ([3]; 5 min after preparation): 6.8% | % Tc-99m as pertechnetate ([3]; 5 min after preparation): 0.6% | % Activity in the HMPD ([3]; 5 min after preparation): 92.6% | % Tc-99m Residue on the column ([3]; 2 h after preparation): 7.5% | % Tc-99m as pertechnetate ([3]; 2 h after preparation): 0.4% | % Activity in the HMPD ([3]; 2 h after preparation): 92.1% | % Tc-99m Residue on the column ([3]; 7 h after preparation): 4.6% | % Tc-99m as pertechnetate ([3]; 7 h after preparation): 0.4% | % Activity in the HMPD ([3]; 7 h after preparation): 95.0% | % Tc-99m Residue on the column ([3]; 24 h after preparation): 5.2% | % Tc-99m as pertechnetate ([3]; 24 h after preparation): 0.8% | % Activity in the HMPD ([3]; 24 h after preparation): 94.0% | product stability ([3]; summary in words): stable for a whole working day | proportion of Tc-99m activity present in the HMPD ([3]; up to 24 h after preparation): more than 90%
